# Laboratory results from patent US20240002441A1, “PEPTIDES AND USES THEREOF IN MODULATION OF AMYLOID-BETA PROTEIN DEGRADING PROTEASES” (priority 2020, published 2024).
# How the values were obtained:
# Type in all cases: biochemical
# NEP [1] = target: T1, NEP (Homo sapiens, UniProt P08473); assay: QFS assay of Aβ-degrading enzymes: NEP (Example 6)
# T1 construct: purchased R & D systems 1182-ZNC-010
# Experimental: (§1) Plate reader-based enzyme assays were performed using a quenched fluorescent substrate (QFS) in a 96-well format using a SpectraMAX M4 Microplate reader (Molecular Devices). The increase in fluorescence following addition of QFS (40 μM) was taken as evidence of enzyme activity. Fluorescence was monitored over 2 h at 37° C. using κEx=320 nm and λEm=405 nm. Assays were conducted in black 96-well plates. Specific enzyme activity was expressed as a rate of substrate cleavage calculated using a standard curve of 7-methoxy-coumarin-4-acetic acid.
# (§2) In all plate reader-based enzyme assays using QFS, the reaction rate (μmol of substrate cleaved/min) was calculated using linear regression analysis (GraphPad Prism software version 8.01). The reaction rates calculated were used to generate the enzyme kinetic parameters Vmax and Km through non-linear regression analysis (GraphPad Prism software, version 8.01; Michaelis-Menten equation). Where indicated, enzyme activity in the presence of peptide was expressed as a % of the enzyme alone. Data were expressed as mean±SEM and statistical significance was determined using t-tests or one-way ANOVAs followed by Tukey's post-hoc test. P<0.05 was considered as statistically significant. In all assays conducted using 96-well plates, the reaction mixtures in each well were considered an independent experiment.
# (§3) SEQ ID NO:2 was assessed in a QFS assay against enzymes NEP, ECE1, ECE2, ACE1, ACE2, IDE and MMP-2 using the method in Example 2 and the following procedure. NEP, ACE1, ECE2 (0.05 ng/μL), ACE2, IDE (0.10 ng/μL), and ECE1 (6.4 ng/μL) were incubated with SEQ ID NO:2 (0.9-26 μM) or scrambled control (9 μM) for 1 h at 37° C. Prior to use, MMP2 (0.50 ng/μL) was activated using p-aminophenylmercuric acetate to a final concentration of 100 μM for 1 h at 37° C. Following activation, MMP2 was incubated with SEQ ID NO:2 for 1 h at 37° C. before adding the appropriate QFS.
# ACE2 = target: T2, ACE2 (Homo sapiens, UniProt Q9BYF1); assay: QFS assay of Aβ-degrading enzymes: ACE2 (Example 6)
# T2 construct: purchased R & D systems 933-ZN-010
# Experimental: as §1, §2, §3
# MMP-2 = target: T3, MMP-2 (Homo sapiens, UniProt P08253); assay: QFS assay of Aβ-degrading enzymes: MMP-2 (Example 6); details: MMP2 0.50 ng/μL activated with p-aminophenylmercuric acetate
# T3 construct: purchased Sigma Aldrich SRP6270-10UG
# T3 sequence (P08253 110-660): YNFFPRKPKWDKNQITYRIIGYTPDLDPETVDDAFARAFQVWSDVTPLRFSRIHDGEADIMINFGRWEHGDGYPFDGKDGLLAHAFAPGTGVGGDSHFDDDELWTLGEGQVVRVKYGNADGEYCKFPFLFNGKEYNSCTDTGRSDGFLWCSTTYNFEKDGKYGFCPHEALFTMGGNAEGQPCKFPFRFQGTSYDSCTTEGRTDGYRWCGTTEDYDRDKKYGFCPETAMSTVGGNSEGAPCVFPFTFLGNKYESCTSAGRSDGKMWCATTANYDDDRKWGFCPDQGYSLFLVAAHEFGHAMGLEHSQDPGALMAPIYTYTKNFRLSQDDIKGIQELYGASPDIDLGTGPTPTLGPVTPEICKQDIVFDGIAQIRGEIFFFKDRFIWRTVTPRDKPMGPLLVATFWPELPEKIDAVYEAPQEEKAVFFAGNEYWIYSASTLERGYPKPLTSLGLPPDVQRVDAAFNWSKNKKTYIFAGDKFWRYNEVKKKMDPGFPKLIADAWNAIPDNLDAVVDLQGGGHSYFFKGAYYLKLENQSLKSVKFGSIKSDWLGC
# Experimental: as §1
# as §2, with “In all assays conducted using 96-well plates, the reaction mixtures in each well were considered an independent experiment.” left out
# SEQ ID NO:2 was assessed in a QFS assay against enzymes NEP, ECE1, ECE2, ACE1, ACE2, IDE and MMP-2 using the method in Example 2 and the following procedure. […]
# NEP [2] = target: T1, NEP; assay: Cleavage of synthetic Aβ42 by NEP, LCMS (Example 7); details: NEP 0.15 ng/μL, peptide 9 μM, Aβ42 0.05 μg/μL
# Experimental: Synthetic Aβ40 (0.10 μg/μL) was added to a reaction mixture containing NEP (0.05 ng/μL) pre-incubated with SEQ ID NO:2 or scrambled control (9 μM) for 1 h at 37° C. Synthetic Aβ42 (0.05 μg/μL) was added to a reaction mixture containing NEP (0.15 ng/μL) preincubated with either scrambled control or SEQ ID NO:2 (9 μM) for 1 h at 37° C. Samples containing enzyme alone had only NEP buffer (Table 2). The cleavage reaction was allowed to continue in a thermomixer at 37° C. Aliquots of equal volume were taken over 24 h. Aliquots were immediately acidified with 0.1% trifluoroacetic acid (TFA) to terminate enzyme activity and snap frozen in dry ice. Samples were stored at −80° C. until analysed by LCMS.
# Samples were analysed by LC-MS/MS using a quadrupole TOF mass spectrometer (MicroTOFq, Bruker Daltonics, Bremen, Germany) coupled online with a 1200 series nano-HPLC (Agilent technologies, Santa Clara, CA, USA). Samples were injected onto a zorbax 300SB reversed phase trap column with 95% solvent A (0.1% formic acid) at a flow rate of 10 μL/minute. The peptides were eluted over a 10-min gradient to 70% solvent B (80% acetonitrile, 0.1% formic acid) and separated on a 15-cm, 75-μmID zorbax 300SB nanocolumn. The eluent was nebulised and ionised using the Bruker nano-ESI source with a capillary voltage of 4500 V, dry gas at 180° C., flow rate of 5 L/minute and nebuliser gas pressure at 300 mbar. […]
# T1 sequence (P08473 whole entry): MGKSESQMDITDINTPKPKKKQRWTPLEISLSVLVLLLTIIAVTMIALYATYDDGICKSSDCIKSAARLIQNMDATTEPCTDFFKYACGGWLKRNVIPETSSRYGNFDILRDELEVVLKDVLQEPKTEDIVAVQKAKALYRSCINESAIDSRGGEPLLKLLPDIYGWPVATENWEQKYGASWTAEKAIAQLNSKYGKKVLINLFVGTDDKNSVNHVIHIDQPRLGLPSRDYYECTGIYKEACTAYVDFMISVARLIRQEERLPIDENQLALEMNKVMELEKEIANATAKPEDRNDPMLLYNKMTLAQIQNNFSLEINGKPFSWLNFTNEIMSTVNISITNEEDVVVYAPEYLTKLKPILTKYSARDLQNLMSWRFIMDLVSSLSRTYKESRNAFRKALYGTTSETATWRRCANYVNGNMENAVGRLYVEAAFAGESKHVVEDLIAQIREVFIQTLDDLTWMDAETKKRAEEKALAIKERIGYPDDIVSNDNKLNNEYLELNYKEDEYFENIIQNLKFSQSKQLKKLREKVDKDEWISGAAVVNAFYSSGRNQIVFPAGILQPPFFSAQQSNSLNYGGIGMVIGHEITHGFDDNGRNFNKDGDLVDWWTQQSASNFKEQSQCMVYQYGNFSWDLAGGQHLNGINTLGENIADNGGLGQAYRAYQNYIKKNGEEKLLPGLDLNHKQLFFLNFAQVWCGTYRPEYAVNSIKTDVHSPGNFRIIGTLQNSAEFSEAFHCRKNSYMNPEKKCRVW
# T2 sequence (Q9BYF1 18-805): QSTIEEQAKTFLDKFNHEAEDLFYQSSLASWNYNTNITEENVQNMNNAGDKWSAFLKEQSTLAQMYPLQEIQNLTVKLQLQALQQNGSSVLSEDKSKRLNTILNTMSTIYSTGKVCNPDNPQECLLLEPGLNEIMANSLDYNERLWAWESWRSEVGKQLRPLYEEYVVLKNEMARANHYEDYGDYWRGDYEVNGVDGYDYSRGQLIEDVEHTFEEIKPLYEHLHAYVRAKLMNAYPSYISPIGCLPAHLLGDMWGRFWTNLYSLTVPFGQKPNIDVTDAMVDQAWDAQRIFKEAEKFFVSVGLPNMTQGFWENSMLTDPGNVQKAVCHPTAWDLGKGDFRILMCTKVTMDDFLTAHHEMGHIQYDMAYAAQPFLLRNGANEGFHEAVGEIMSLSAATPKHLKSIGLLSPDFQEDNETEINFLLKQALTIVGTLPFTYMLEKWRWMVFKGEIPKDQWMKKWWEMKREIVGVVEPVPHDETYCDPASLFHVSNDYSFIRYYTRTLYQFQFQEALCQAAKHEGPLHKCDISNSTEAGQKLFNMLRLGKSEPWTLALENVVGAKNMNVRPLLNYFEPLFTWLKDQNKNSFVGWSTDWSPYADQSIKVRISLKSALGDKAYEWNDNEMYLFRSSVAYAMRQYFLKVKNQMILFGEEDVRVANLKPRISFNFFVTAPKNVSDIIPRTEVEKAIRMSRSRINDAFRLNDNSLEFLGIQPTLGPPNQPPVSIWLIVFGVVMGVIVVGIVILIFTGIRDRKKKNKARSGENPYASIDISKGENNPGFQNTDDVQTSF
substance,measurement,setting,value
"H-SLFELGKMIL-NH2 [SEQ ID NO:2, H2N-SLFELGKMIL-NH2]",submaximal concentration against NEP,NEP [1],9 µM
same,NEP activity compared with respective enzyme alone,NEP [1]; peptide 2 μM (FIG. 2c),significantly increased
same,activity of NEP as % of enzyme alone controls,NEP [1]; peptide 9 μM,380%
same,"NEP activity, concentration dependence",NEP [1]; peptide 0.9-26 μM,increased the activity
same,ACE2 activity compared with respective enzyme alone,ACE2; peptide 2 μM (FIG. 2c),significantly increased
same,activity of ACE2 as % of enzyme alone controls,ACE2; peptide 9 μM,283%
same,"ACE2 activity, concentration dependence",ACE2; peptide 0.9-26 μM,increased the activity
same,activity of MMP-2 in the presence of peptide,MMP-2,0.7±0.2 μmol of substrate cleaved
same,effect on the activity of MMP-2,MMP-2,did not affect
same,"amount of cleavage products Aβ1-12, Aβ1-16 and Aβ1-21 formed from Aβ42 over 24 h, compared with scrambled control",NEP [2],significantly higher
